Measurements published in patent publication US8785459B2, “Quinazoline compounds as kinase inhibitors” (Development Center for Biotechnology, priority 2011, dated 2014).

Experiments:
A549 = assay: Anti-proliferative activity, CellTiter-96 assay, A549; format: cell-based; conditions: Homo sapiens, A549 cells, 72 hours incubation
How it was run: (§1)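 Cells in DMEM with 10% FCS at 37° C., 5% CO2, plated at 2000 cells/well for 24 h, then exposed to graded compound concentrations for 72 h. CellTiter-96 Aqueous One reagent added for 4.0 h; viability read as absorbance at 490 nm.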

COLO205 = assay: Anti-proliferative activity, CellTiter-96 assay, COLO205; format: cell-based; conditions: Homo sapiens, COLO 205, COLO205 cells, 72 hours incubation
How it was run: as §1

VEGFR2 kinase = VEGFR2 kinase (Homo sapiens (Human), UniProt P35968); assay: VEGFR2 kinase assay; format: biochemical
Method: Inhibition of VEGFR2 kinase activity by compounds disclosed herein was quantified by measuring the amount of [^33P] incorporated into the substrate in the presence of a test compound. […] The reaction was then stopped by adding 5 μL of 3% phosphoric acid solution. The resultant solution was transferred to and harvested by a filter plate (UniFilter-96 GF/B, PerkinElmer). The filter plate was then washed 20 times with d.d. H2O for 5 min followed by the addition of 30 μL of MicroScint™-20 Cocktail (PerkinElmer). After the plate was sealed, the retained radioactivity on the filter was counted using a TopCount™ scintillation detector (PerkinElmer). […]

MDA-MB-231 = assay: Anti-proliferative activity, CellTiter-96 assay, MDA-MB-231; format: cell-based; conditions: Homo sapiens, MDA-MB-231 cells, 72 hours incubation
How it was run: as §1

B-Raf (V600E) = B-Raf (V600E) (Homo sapiens (Human), UniProt P15056, V600E); assay: Raf kinase assay (B-Raf (V600E)), [33P] incorporation into MEK1(K97R); format: biochemical
How it was run: (§2)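 [33P] transfer to kinase-dead MEK1(K97R) substrate (500 ng) measured after 30 min at 30 °C in Tris pH 7.5 buffer containing 8 μM ATP. Enzyme inputs were 2 ng for C-Raf and 5 ng for B-Raf and B-Raf V600E. Duplicate 3-fold serial dilutions gave the half-maximal inhibitory concentration.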

FGFR1 kinase = FGFR1 kinase (Homo sapiens (Human), UniProt P11362); assay: FGFR1 kinase assay; format: biochemical
Method: Inhibition of FGFR1 kinase activity by compounds disclosed herein was quantified by measuring the amount of [^33P] incorporated into the substrate in the presence of a test compound. Briefly, a reaction mixture of 25 μL final volume containing 1 ng of FGFR1 kinase (FGFR1 kinase domain alone, Millipore), 5 μg of the substrate [poly(Glu-Tyr), Sigma], kinase reaction buffer (14 mM MOPS pH 7.0, 0.2 mM EDTA, 0.5% glycerol, 0.001% Brij-35, 0.01% β-mercaptoethanol, 0.1 mg/ml BSA, 100 μM ATP, 0.1 μCi per well [^33P]-γ-ATP (2,500-3,000 Ci/mmol)), and a test compound (100 nM, diluted with 4% DMSO) or DMSO (as the control) was incubated at 30° C. for 60 minutes. The reaction was stopped by adding 5 μL of 3% phosphoric acid solution. The resultant reaction solution was then harvested onto a filter plate (UniFilter-96 GF/B, PerkinElmer), washed 20 times for 5 min with d.d. H2O, and followed by the addition of 30 μL of MicroScint™-20 Cocktail (PerkinElmer). The radioactivity retained on the filter membrane was measured by TopCount™ scintillation detector (PerkinElmer). The results were analyzed by using linear regression software (GraphPad Prism™ 4; GraphPad Software Inc.). IC50 value is defined as the concentration of the test compound which achieves a half-maximal inhibition of the kinase activity.

Cdk1 kinase = Cdk1 kinase (Homo sapiens (Human), UniProt P06493); assay: CDK1 kinase assay; format: biochemical
Method: Inhibition of Cdk1 kinase activity by compounds disclosed herein was quantified by measuring the amount of [^33P] incorporated into the substrate in the presence of a test compound. Briefly, a reaction mixture of 25 μL final volume containing 5 ng of Cdk1 kinase (Cdk1 kinase domain alone, Millipore), 3 μg of the substrate [Histone H1], kinase reaction buffer (10 mM MOPS pH 7.0, 0.3 mM EDTA, 0.5% glycerol, 0.001% Brij-35, 0.1 mg/ml BSA, 10 μM ATP, 0.1 μCi per well [^33P]-γ-ATP (2,500-3,000 Ci/mmol)), and a test compound (100 nM, diluted with 4% DMSO) or DMSO (as the control) was incubated at 30° C. for 30 minutes. The reaction was stopped by adding 5 μL of 3% phosphoric acid solution. The resultant reaction solution was then harvested onto a filter plate (UniFilter-96 GF/B, PerkinElmer), washed 20 times for 5 min with d.d. H2O, and followed by the addition of 30 μL of MicroScint™-20 Cocktail (PerkinElmer). The radioactivity retained on the filter membrane was measured by TopCount™ scintillation detector (PerkinElmer). The results were analyzed by using linear regression software (GraphPad Prism™ 4; GraphPad Software Inc.).

A375 = assay: Anti-proliferative activity, CellTiter-96 assay, A375; format: cell-based; conditions: Homo sapiens, A-375, A375 cells, 72 hours incubation
How it was run: as §1

C-Raf = C-Raf (Homo sapiens (Human), UniProt P04049); assay: Raf kinase assay (C-Raf), [33P] incorporation into MEK1(K97R); format: biochemical
How it was run: as §2

C-Raf, sequence (P04049 whole entry): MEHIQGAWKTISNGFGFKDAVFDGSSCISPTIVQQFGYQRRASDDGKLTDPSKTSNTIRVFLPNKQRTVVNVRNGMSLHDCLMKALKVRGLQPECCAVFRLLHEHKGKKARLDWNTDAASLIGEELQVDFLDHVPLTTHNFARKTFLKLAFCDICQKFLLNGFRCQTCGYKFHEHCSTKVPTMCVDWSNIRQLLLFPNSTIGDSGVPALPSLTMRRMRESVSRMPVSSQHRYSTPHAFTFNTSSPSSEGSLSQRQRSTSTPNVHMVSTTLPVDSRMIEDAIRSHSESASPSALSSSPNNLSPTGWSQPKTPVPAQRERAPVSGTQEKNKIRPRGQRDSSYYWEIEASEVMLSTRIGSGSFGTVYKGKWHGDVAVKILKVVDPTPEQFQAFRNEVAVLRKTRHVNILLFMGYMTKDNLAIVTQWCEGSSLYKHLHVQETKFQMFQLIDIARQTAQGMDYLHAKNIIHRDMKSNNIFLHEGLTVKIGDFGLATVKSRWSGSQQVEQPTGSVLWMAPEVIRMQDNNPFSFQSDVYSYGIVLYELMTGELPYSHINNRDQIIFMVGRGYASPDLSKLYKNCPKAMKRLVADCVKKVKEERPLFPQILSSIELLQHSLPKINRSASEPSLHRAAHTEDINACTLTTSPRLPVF
VEGFR2 kinase, sequence (P35968 834-1162): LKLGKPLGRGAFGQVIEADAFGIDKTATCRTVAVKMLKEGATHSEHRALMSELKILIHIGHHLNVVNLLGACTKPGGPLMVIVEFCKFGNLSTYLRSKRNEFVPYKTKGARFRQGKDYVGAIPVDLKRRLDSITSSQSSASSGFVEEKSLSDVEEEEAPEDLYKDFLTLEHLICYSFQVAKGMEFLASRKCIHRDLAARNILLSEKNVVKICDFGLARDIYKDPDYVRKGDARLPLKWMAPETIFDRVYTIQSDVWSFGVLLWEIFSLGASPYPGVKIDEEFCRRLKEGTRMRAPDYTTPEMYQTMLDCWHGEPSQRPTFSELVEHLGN
Cdk1 kinase, sequence (P06493 4-287): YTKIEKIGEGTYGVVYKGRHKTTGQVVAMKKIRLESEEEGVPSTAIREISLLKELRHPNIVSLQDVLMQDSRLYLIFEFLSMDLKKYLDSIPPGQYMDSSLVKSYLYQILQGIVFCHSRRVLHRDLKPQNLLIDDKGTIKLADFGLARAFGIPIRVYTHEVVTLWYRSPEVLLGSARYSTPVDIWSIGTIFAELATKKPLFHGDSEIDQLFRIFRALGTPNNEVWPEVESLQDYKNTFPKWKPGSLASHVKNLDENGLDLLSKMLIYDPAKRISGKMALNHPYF
Cdk1 kinase, sequence (P14635 whole entry partner, the tested form may be a part): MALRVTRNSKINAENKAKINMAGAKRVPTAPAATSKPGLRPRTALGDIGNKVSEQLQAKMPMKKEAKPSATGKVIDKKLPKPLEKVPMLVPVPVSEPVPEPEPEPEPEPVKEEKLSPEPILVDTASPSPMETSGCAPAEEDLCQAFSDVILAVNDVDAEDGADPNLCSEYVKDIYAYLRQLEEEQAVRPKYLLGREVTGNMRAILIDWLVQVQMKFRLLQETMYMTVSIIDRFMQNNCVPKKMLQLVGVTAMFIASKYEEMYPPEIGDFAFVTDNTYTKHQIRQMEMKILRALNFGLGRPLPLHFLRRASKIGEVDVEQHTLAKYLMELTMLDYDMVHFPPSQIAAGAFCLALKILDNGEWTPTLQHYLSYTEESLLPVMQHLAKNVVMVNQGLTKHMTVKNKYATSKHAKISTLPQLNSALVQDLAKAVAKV
FGFR1 kinase, sequence (P11362 478-767): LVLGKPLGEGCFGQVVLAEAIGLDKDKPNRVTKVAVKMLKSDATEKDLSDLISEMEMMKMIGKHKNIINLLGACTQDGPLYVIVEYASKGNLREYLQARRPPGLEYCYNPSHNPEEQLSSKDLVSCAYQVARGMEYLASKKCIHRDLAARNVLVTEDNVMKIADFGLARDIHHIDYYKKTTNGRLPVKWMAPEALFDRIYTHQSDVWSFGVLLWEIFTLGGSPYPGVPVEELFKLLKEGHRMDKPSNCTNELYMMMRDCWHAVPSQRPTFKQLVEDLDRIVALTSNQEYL
B-Raf (V600E), sequence (P15056 whole entry V600E): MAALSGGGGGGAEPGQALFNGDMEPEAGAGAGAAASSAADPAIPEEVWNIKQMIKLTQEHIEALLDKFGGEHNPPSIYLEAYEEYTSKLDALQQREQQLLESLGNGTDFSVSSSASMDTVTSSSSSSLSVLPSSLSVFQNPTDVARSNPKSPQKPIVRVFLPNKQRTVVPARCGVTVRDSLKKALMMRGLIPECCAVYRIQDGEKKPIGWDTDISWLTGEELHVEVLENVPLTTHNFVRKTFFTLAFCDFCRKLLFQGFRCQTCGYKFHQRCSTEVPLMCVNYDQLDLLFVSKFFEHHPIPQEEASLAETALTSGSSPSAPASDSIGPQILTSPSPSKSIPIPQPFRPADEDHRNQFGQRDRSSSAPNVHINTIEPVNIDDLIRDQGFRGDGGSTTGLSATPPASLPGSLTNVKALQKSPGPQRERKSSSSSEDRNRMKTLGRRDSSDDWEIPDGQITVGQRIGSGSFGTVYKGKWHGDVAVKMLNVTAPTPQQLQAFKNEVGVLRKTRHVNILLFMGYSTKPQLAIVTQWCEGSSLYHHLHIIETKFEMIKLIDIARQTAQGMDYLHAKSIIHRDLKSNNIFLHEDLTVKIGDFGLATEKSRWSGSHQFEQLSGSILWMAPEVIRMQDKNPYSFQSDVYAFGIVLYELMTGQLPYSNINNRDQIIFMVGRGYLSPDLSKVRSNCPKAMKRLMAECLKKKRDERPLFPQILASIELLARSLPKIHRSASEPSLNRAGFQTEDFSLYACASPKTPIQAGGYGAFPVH

IC50 (A549) | IC50 (COLO205) | IC50 (VEGFR2 kinase) | IC50 (MDA-MB-231) | IC50 (B-Raf (V600E)) | IC50 (FGFR1 kinase) | inhibition at 1 µM (Cdk1 kinase) | IC50 (A375) | IC50 (C-Raf) | Compound
1.1 ± 0.1 µM | 6.7 ± 0.1 µM | 139 nM | 1.5 ± 0.1 µM | 37.4 nM | 413 nM | 88% | 0.9 ± 0.2 µM | 255 nM | COc1cc(-c2ccc3ncnc(Nc4cccc(O)c4)c3c2)ccc1O [Compound 8, 4-(4-(3-hydroxyphenylamino)quinazolin-6-yl)-2-methoxyphenol]
0.5 ± 0.2 µM | 3.2 ± 0.3 µM | 23.5 nM | 0.8 ± 0.3 µM | 23.2 nM | 131 nM | 78% | 0.5 ± 0.1 µM | 170 nM | COc1cc(-c2ccc3ncnc(Nc4cc(O)ccc4F)c3c2)ccc1O [Compound 58, 4-(4-(2-fluoro-5-hydroxyphenylamino)quinazolin-6-yl)-2-methoxyphenol]
